Test results taken from ChEMBL document CHEMBL5104129, “Discovery of a novel 2-spiroproline steroid mimetic scaffold for the potent inhibition of 11β-HSD1” (Bioorg Med Chem Lett, 2022).

Columns and labels:
[1] = target: T1, 11-beta-hydroxysteroid dehydrogenase 1 (Homo sapiens, UniProt P28845); assay: Inhibition of 11beta-HSD1 (unknown origin)
[2] = target: T1, 11-beta-hydroxysteroid dehydrogenase 1; assay: Inhibition of 11beta-HSD1 (unknown origin) using 3H-cortisone as substrate by scintillation proximity assay
hERG (KCNH2) = hERG (KCNH2) (Homo sapiens, UniProt Q12809); assay: Inhibition of human ERG expressed in CHO cells at 30 uM at -80 mV holding potential by automated patch clamp assay relative to control; type: toxicity, cell-based; settings: CHO cells expressing human ERG
Chain of hERG (KCNH2) (Q12809 whole entry): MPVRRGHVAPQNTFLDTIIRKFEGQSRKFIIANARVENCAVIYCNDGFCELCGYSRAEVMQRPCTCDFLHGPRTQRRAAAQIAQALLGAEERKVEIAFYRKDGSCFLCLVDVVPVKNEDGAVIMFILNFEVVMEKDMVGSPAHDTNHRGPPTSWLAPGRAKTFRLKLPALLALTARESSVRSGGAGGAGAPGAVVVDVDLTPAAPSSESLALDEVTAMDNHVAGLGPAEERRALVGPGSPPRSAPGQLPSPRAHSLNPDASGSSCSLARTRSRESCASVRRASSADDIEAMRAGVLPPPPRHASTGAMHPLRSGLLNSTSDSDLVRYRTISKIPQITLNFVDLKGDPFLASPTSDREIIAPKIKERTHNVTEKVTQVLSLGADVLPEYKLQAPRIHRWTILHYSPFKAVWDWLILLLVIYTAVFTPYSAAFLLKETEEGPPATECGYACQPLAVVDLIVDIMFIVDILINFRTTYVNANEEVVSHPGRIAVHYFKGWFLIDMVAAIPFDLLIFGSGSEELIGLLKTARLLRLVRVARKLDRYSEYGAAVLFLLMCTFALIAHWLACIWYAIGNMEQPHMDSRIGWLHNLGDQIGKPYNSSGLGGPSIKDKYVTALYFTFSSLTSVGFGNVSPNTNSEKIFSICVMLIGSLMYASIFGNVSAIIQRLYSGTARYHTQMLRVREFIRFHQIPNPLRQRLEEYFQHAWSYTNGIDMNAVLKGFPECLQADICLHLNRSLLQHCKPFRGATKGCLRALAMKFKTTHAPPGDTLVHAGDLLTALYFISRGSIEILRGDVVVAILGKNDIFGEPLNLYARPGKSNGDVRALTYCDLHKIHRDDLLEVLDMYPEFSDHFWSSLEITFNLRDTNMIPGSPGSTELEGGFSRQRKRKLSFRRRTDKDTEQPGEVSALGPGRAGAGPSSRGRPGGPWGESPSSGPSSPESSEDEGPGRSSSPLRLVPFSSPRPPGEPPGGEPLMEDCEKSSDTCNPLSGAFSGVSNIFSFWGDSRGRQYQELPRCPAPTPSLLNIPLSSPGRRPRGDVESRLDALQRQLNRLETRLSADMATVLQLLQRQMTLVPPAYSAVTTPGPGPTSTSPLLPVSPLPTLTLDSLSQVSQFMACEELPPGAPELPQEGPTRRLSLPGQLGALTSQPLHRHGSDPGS

PXR (NR1I2) [3] = target: T2, PXR (NR1I2) (Homo sapiens, UniProt O75469); assay: Activation of human PXR assessed as induction of PXR activity at 10 uM relative to control; settings: read-out: Activity
T2 sequence (O75469 whole entry): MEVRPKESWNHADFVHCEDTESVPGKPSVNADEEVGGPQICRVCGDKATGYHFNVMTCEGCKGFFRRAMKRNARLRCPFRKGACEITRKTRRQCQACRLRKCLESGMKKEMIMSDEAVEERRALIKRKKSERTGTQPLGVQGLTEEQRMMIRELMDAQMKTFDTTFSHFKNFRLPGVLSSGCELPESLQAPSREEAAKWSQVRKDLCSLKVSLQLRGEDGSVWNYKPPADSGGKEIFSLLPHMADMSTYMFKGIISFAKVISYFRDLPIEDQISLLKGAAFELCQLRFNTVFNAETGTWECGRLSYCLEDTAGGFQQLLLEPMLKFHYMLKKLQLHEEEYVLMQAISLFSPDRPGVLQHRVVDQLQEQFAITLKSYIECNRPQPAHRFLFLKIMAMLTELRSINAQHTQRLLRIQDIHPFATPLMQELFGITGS

PXR (NR1I2) [4] = target: T3, PXR (NR1I2) (Rattus norvegicus, UniProt Q9R1A7); assay: Activation of rat PXR assessed as induction of PXR activity at 10 uM relative to control; settings: read-out: Activity
T3 sequence (Q9R1A7 whole entry): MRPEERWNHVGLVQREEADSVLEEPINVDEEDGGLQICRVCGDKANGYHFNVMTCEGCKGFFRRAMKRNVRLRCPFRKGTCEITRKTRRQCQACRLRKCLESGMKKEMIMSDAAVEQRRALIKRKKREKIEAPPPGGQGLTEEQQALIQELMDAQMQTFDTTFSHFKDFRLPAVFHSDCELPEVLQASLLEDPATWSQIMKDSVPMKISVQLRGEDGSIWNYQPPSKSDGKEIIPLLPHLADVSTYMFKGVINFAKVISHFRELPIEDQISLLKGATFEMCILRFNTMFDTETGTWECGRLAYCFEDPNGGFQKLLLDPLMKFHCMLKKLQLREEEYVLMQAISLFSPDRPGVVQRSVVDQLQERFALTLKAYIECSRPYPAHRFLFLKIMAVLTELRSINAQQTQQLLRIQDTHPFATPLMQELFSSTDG

[5] = target: T1, 11-beta-hydroxysteroid dehydrogenase 1; assay: Inhibition of 11beta-HSD1 in human PBMC cells using 3H-cortisone as substrate assessed as conversion of cortisone to cortisol by ELISA; type: cell-based

T1 sequence (P28845 whole entry): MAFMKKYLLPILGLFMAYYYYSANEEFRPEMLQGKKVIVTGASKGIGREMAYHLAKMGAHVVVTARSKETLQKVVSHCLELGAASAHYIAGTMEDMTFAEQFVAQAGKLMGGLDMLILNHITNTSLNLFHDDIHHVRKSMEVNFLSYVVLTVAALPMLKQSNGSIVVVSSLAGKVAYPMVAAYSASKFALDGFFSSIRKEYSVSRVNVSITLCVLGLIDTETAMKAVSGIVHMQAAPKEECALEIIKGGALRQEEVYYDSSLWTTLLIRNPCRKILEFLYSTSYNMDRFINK

Structure (SMILES) | IC50 [1] | IC50 [2] | activity at 10 µM (PXR (NR1I2) [3]) | activity at 10 µM (PXR (NR1I2) [4]) | IC50 [5] | inhibition at 30 µM (hERG (KCNH2))
O=C(NC12CC3CC(CC(C3)C1)C2)[C@H]1CCCN1Cc1ccccn1 | 12 nM | – | – | – | – | –
CC(C)N1C[C@H](O)C[C@]12CCN(C1CCCCC1)C2=O | – | > 1000 nM | -0.5% | -0.5% | > 37 nM | 0%
N#Cc1cncc(-c2ccc(CN3C[C@H](O)C[C@]34CCN(C3CCCCC3)C4=O)cc2)c1 | – | 188 nM | – | – | – | –
O=C1N(C2CCOCC2)CCC12CCCN2Cc1ccc(Cl)cc1 (stereo not drawn) | – | 45 nM | – | – | – | –
O=C1N(C2CCCCC2)CC[C@]12C[C@@H](O)CN2C1CCCC1 | – | 351 nM | – | – | – | –
O=C1N(C2CCCCC2)CCC12CCCN2CC1CCOC1 (stereo not drawn) | – | 460 nM | – | – | – | –
O=C1N([C@H]2CC[C@H](O)CC2)CCC12CCCN2Cc1ccc(Cl)cc1 (stereo partly drawn) | – | 30 nM | 0.5% | 2% | – | 13%
O=C1N(C2CCCCC2)CC[C@]12C[C@@H](O)CN2Cc1ccc(-c2ccc(F)cc2)nc1 | – | 80 nM | – | – | > 37 nM | –
O=C1N(C2CCCCC2)CC[C@@]12C[C@H](O)CN2Cc1ccc(Cl)cc1 | – | > 1000 nM | 52% | 12% | > 37 nM | -4.3%
CC1(O)CN(Cc2ccc(Cl)cc2)[C@@]2(CCN(C3CCCCC3)C2=O)C1 (stereo partly drawn) | – | 999 nM | 9.5% | 41% | > 37 nM | 13%
O=C1N(C23CC4CC(CC(C4)C2)C3)CCC12CCCN2c1ccc(C(F)(F)F)cn1 (stereo not drawn) | – | > 1000 nM | – | – | – | –
N#Cc1ccc(-c2ccc(CN3C[C@H](O)C[C@]34CCN(C3CCCCC3)C4=O)nc2)cc1 | – | 230 nM | – | – | – | –
O=C1N(C23CC4CC(CC(C4)C2)C3)CCC12CCCN2Cc1ccccn1 (stereo not drawn) | – | 134 nM | – | – | – | –
CCNC(=O)c1ccc(-c2cc(CN3C[C@H](O)C[C@]34CCN(C3CCCCC3)C4=O)ccc2F)cn1 | – | 62 nM | – | – | > 37 nM | –
CN(C)C(=O)c1ccc(-c2ccc(CN3C[C@H](O)C[C@]34CCN(C3CCCCC3)C4=O)cc2)cn1 | – | 35 nM | – | – | – | –
O=C1N(C2CCCCC2)CCC12CCCN2CC1CC1 (stereo not drawn) | – | 134 nM | – | – | – | –

Structure (SMILES) | IC50 [1] | IC50 [2] | activity at 10 µM (PXR (NR1I2) [3]) | activity at 10 µM (PXR (NR1I2) [4]) | IC50 [5] | inhibition at 30 µM (hERG (KCNH2))
O=C(c1ccccn1)N1CCCC12CCN(C1CCCCC1)C2=O (stereo not drawn) | – | > 1000 nM | – | – | – | –
N#Cc1cccc(-c2ccc(CN3C[C@H](O)C[C@]34CCN(C3CCCCC3)C4=O)cn2)c1 | – | 92 nM | – | – | > 37 nM | –
O=C1N(c2ccccc2Cl)CCC12CCCN2CC1CC1 (stereo not drawn) | – | 500 nM | – | – | – | –
O=C1N(C2CCCCC2)CCC12CCCN2CC1CCCC1 (stereo not drawn) | – | 36 nM | – | – | – | –
CCNC(=O)c1ccc(-c2cccc(CN3C[C@H](O)C[C@]34CCN(C3CCCCC3)C4=O)c2)cn1 | – | 227 nM | – | – | > 37 nM | –
O=C1N(C2CCCCC2)CC[C@]12C[C@@H](O)CN2CC1CCCC1 | – | 30 nM | – | – | – | –
O=C1N(C2CCCCC2)CCC12CCCN2Cc1ccccn1 (stereo not drawn) | – | 63 nM | – | – | – | –
N#Cc1ccnc(-c2ccc(CN3C[C@H](O)C[C@]34CCN(C3CCCCC3)C4=O)cc2)c1 | – | 35 nM | – | – | – | –
O=C1N(C23CC4CC(CC(C4)C2)C3)CCC12CCCN2CC1CCCC1 (stereo not drawn) | – | 51 nM | – | – | – | –
CC(C)CN1CCCC12CCN(C13CC4CC(CC(C4)C1)C3)C2=O (stereo not drawn) | – | 400 nM | – | – | – | –
O=C1N(C2CCCCC2)CCC12CCCN2Cc1cccc(C(F)(F)F)c1 (stereo not drawn) | – | 40 nM | – | – | – | –
CC(C1CC1)N1C[C@H](O)C[C@]12CCN(C1CCCCC1)C2=O (stereo partly drawn) | – | 400 nM | 1% | 2% | > 37 nM | -10%
N#Cc1ccc(CN2CCCC23CCN(C2CCCCC2)C3=O)cc1 (stereo not drawn) | – | 29 nM | – | – | – | –
CC(C)CN1CCC[C@@H]1C(=O)NC1CCCCC1 | 9 nM | – | – | – | – | –
O=C1N(C2CCCCC2)CCC12CCCN2C1CCC1 (stereo not drawn) | – | > 1000 nM | – | – | – | –

The remaining molecules from weak to strong by IC50 [2], led by results:

IC50 [1] | IC50 [2] | activity at 10 µM (PXR (NR1I2) [3]) | activity at 10 µM (PXR (NR1I2) [4]) | IC50 [5] | Structure (SMILES) | inhibition at 30 µM (hERG (KCNH2))
– | 26 nM | – | – | – | O=C1N(C2CCCC2)CCC12CCCN2Cc1ccc(Cl)cc1 (stereo not drawn) | –
– | 23 nM | 13% | 31% | – | CCNC(=O)c1ccc(-c2ccc(CN3CCCC34CCN(C3CCCCC3)C4=O)cc2)cn1 (stereo not drawn) | 15%
– | 18 nM | – | – | 35 nM | N#Cc1ccc(-c2ccc(CN3C[C@H](O)C[C@]34CCN(C3CCCCC3)C4=O)cn2)cc1 | –
– | 15 nM | – | – | – | O=C1N(C2CCCCC2)CCC12CCCN2Cc1ccccc1C(F)(F)F (stereo not drawn) | –
– | 15 nM | 56% | 28% | 21 nM | CCN1C[C@@H](O)C[C@]12CCN(C1CCCCC1)C2=O | 11%
– | 15 nM | 9% | 14% | 7 nM | O=C1N(C2CCCCC2)CC[C@]12C[C@@H](O)CN2CC1CCCCC1 | 8.1%
– | 13 nM | – | – | 9.5 nM | CNC(=O)c1ccc(-c2ccc(CN3C[C@H](O)C[C@]34CCN(C3CCCCC3)C4=O)cc2F)cn1 | –
– | 9 nM | – | – | 17 nM | CNC(=O)c1ccc(-c2ccc(CN3C[C@H](O)C[C@]34CCN(C3CCCCC3)C4=O)c(F)c2)cn1 | –
– | 8 nM | 46% | 22% | – | O=C1N(C2CCCCC2)CCC12CCCN2Cc1ccc(Cl)cc1 (stereo not drawn) | 45%
– | 7 nM | 80% | 12% | – | O=C1N(C2CCCCC2)CCC12CCCN2Cc1ccc(C(F)(F)F)cc1 (stereo not drawn) | 27%
– | 7 nM | 4.5% | 9% | 3.9 nM | CC(C1CCC1)N1C[C@H](O)C[C@]12CCN(C1CCCCC1)C2=O (stereo partly drawn) | -15%
– | 7 nM | 18% | 10% | – | O=C1N(C2CCCCC2)CCC12C[C@@H](O)CN2Cc1ccc(Cl)cc1 (stereo partly drawn) | 27%
– | 7 nM | – | – | 6.6 nM | O=C1N(C2CCCCC2)CC[C@]12C[C@@H](O)CN2Cc1ccc(-c2ccncc2)cc1 | –
– | 7 nM | – | – | – | O=C1N(C2CCCCCC2)CCC12CCCN2Cc1ccc(Cl)cc1 (stereo not drawn) | –
– | 6 nM | 42% | 16% | 6.2 nM | O=C1N(C2CCCCC2)CC[C@]12C[C@@H](O)CN2Cc1ccc(Cl)cc1 | 14%
– | 5 nM | – | – | 4.9 nM | CC(C)NC(=O)c1ccc(-c2ccc(CN3C[C@H](O)C[C@]34CCN(C3CCCCC3)C4=O)cc2F)cn1 | –
– | 5 nM | 10% | 58% | 1.9 nM | CC(C1CCCCC1)N1C[C@H](O)C[C@]12CCN(C1CCCCC1)C2=O (stereo partly drawn) | 14%
– | 3 nM | -0.3% | -0.3% | 7.2 nM | CNC(=O)c1ccc(-c2ccc(CN3C[C@H](O)C[C@]34CCN(C3CCCCC3)C4=O)cc2)cn1 | -14%
– | 2 nM | 14% | 24% | 5.9 nM | CNC(=O)c1ccc(-c2ccc(CN3C[C@@H](F)C[C@]34CCN(C3CCCCC3)C4=O)cc2)cn1 | 49%
– | 2 nM | 48% | 123% | 5.1 nM | O=C1N(C2CCCCC2)CC[C@]12C[C@H](F)CN2Cc1ccc(Cl)cc1 | 52%
